Data on five sequences can be found in paper PMC5904360, “Soluble N-Ethylmaleimide-Sensitive Factor Attachment Protein Receptor-Derived Peptides for Regulation of Mast Cell Degranulation” (Frontiers in Immunology, 2018).

Assay [1] has as its system RBL-2H3 mast cells. Put plainly: Degranulation assay, β-hexosaminidase release. The class given is cell-based, rat. As to conditions: for inhibition of mast cell degranulation with versus without A23187 pretreatment: PTD-conjugated peptides, read-outs β-hexosaminidase and histamine (Figure 4B); for reduction of β-hexosaminidase release: 10 µM PTD-fused peptide without SLO (LY294002 as positive control), DNP-BSA stimulation, no A23187 pretreatment, three independent experiments (Figure 2A gray bars, 2C).

For assay [2], the target named is T1, SN23-Syn4-Vp8 SNARE complex (Rattus norvegicus, UniProt O70377+Q08850+Q9WUF4).
T1 construct: Syn4 (amino acids 1–298); SNAP-23 (amino acids 1–210); VAMP8 (amino acids 1–100); GST (N, cleaved yes); made in house; host or cells: Escherichia coli Rosetta(DE3)pLysS
T1 sequence (Q08850 1-298): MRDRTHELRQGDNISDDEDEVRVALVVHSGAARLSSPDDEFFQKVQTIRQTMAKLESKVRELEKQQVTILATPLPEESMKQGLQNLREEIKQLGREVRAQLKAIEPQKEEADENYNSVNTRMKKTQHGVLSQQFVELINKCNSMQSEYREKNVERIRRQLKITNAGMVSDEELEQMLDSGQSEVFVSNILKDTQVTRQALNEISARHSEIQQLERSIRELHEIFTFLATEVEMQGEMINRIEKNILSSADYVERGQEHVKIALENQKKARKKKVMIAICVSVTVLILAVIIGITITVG
T1 sequence (O70377 1-210): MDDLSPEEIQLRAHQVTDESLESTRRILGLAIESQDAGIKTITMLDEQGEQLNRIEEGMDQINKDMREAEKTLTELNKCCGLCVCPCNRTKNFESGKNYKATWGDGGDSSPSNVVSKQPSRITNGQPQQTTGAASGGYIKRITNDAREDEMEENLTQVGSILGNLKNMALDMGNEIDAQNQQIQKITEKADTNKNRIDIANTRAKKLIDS
T1 sequence (Q9WUF4 1-100): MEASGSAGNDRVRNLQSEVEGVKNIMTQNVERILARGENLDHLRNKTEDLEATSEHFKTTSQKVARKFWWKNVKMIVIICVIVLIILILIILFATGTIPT
Put plainly: SNARE-driven membrane fusion (total lipid mixing) assay with proteoliposomes. The assay is classed as biochemical. As to conditions: for inhibition of membrane fusion, peptide added before preincubation: peptide added before preincubation of T- and V-liposomes at 4°C overnight (Figure 4A). The text has this:
(§1) Total RNA was obtained from RBL-2H3 cells using TRIzol® Reagent (#15596026, Invitrogen, Carlsbad, CA, USA) and served as a template for cDNA synthesis with M-MLV reverse transcriptase (M1705, Promega, Madison, WI, USA) according to the manufacturer’s protocol. The cDNAs amplified for rat Syn4, SNAP-23, VAMP2, VAMP4, VAMP7, and VAMP8 using each primer pair ([4]), were cloned into the pGEX-4T 1 vector. The mast cell SNARE proteins [Syn4 (amino acids 1–298), SNAP-23 (amino acids 1–210), full-length VAMP2 (VpF, amino acids 1–116), VAMP4 (amino acids 1–141), and VAMP8 (amino acids 1–100)] were expressed in Escherichia coli Rosetta(DE3)pLysS (#70956, Novagen, Darmstadt, Germany) and purified as glutathione-S-transferase-tagged fusion proteins as reported previously ([8]).
(§2) To prepare the unilamellar liposomes, a 50-mM lipid mixture of palmitoyl-2-oleoylphosphatidylcholine (POPC) (#850457, Avanti Polar Lipids, Alabaster, AL, USA):1,2-dioleoyl-phosphatidylserine (DOPS) (#840035, Avanti Polar Lipids) at 65:35 mol% was dried in a glass tube under a gentle stream of nitrogen gas and then exposed to a vacuum overnight. The resultant lipid film was resuspended in dialysis buffer (25 mM HEPES and 100 mM KCl, pH 7.4) by vortexing, followed by an extrusion step with polycarbonate membrane filters having a pore size of 100 nm (#610005, Avanti Polar Lipids). To prepare proteoliposomes, binary T-SNAREs, which were pre-formed by mixing Syn4 and SNAP-23 at room temperature for 60 min, were incubated with 50 mM unilamellar liposomes for 15 min at the same temperature, resulting in a 50:1 lipid/protein molar ratio ([9]).
(§3) For the preparation of V-SNARE proteoliposomes, a 10-mM premixed lipid solution [POPC:DOPS:N-(7-nitro-2-1,3-benzoxadiazol-4-yl (NBD))-phosphatidylserine (#810198, Avanti Polar Lipids):[…] (#810150, Avanti Polar Lipids) = 62:35:1.5:1.5 (molar ratio)] was used for the preparation of fluorescent liposomes in the same manner as above. The prepared liposomes were then mixed with VAMP2 for 15 min at room temperature. The liposome/protein mixture was diluted twice to bring the concentration of n-octyl glucoside (O8001, Sigma-Aldrich) below the critical micelle concentration. After overnight dialysis against 1L dialysis buffer at 4°C to remove the detergent, SM-2 bio-beads (#1523920, Bio-Rad Laboratories, Hercules, CA, USA) were added to the sample to remove any remaining n-octyl glucoside. The solution was then centrifuged at 10,000 × g to remove the protein/lipid aggregates, and the final lipid concentrations of both the T- and V-liposomes were adjusted to 1 mM with a lipid-to-protein ratio of 50:1.
A total lipid mixing assay using the T- and V-liposomes was performed as described previously with minor modifications ([8]). Briefly, peptide inhibitors were applied to the T-vesicles at the indicated concentrations and then the T-vesicles were mixed with the V-vesicles in a 384-well plate for the initiation of fusion, with a T- to V-vesicle volume ratio of 9:1. The fusion was monitored using the dequenching of NBD fluorescence signal (excitation 465 nm/emission 530 nm). After at least 80 min of fusion, the maximum NBD signal was obtained by adding 0.1% Triton X-100™. All the lipid-mixing experiments were performed at 37°C.

The target in assay [3] is T2, SN23-Syn4-Vp2 SNARE complex (Rattus norvegicus, UniProt O70377+P63045+Q08850).
T2 construct: Syn4 (amino acids 1–298); SNAP-23 (amino acids 1–210); full-length VAMP2 (VpF, amino acids 1–116); GST (N, cleaved yes); made in house; host or cells: Escherichia coli Rosetta(DE3)pLysS
T2 sequence (P63045 whole entry, one chain of several, the tested form may be a part): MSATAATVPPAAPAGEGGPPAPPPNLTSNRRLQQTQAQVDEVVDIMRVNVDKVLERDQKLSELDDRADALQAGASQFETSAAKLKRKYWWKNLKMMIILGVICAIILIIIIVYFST
The description is as above. The assay is classed as biochemical. As to conditions: for inhibition of membrane fusion, peptide added after preincubation: peptide added after preincubation of T- and V-liposomes at 4°C overnight (partially zippered SNAREs) (Figure 4A); for inhibition of membrane fusion, peptide added before preincubation: peptide added before preincubation of T- and V-liposomes at 4°C overnight (Figure 4A).
Source text: as §1, §2, §3
A total lipid mixing assay using the T- and V-liposomes was performed as described previously with minor modifications ([8]). […] The fusion was monitored using the dequenching of NBD fluorescence signal (excitation 465 nm/emission 530 nm). After at least 80 min of fusion, the maximum NBD signal was obtained by adding 0.1% Triton X-100™. All the lipid-mixing experiments were performed at 37°C.

Assay [4] concerns the target T1, SN23-Syn4-Vp8 SNARE complex. The description is as above. The class given is biochemical. The conditions noted are these: peptide added after preincubation of T- and V-liposomes at 4°C overnight (partially zippered SNAREs) (Figure 4A).
The test system of assay [5] is RBL-2H3 mast cells. Put plainly: Degranulation assay, histamine release (enzyme immunoassay). The assay is classed as cell-based, rat. The conditions noted are these: PTD-conjugated peptide without SLO (LY294002 as positive control), DNP-IgE sensitized, DNP-BSA stimulation, no A23187 pretreatment; three independent experiments (Figure 2C).

Take “DQINKDMREAEKTLTEL [SN23C, 17-mer peptide, C-terminal region of SNAP-23 SNARE motif SN23]”: the “inhibition of mast cell degranulation with versus without A23187 pretreatment” value with RBL-2H3 mast cells [1] is recorded as “did not inhibit degranulation regardless of whether the pretreatment with A23187 was performed”. The “inhibition of membrane fusion, peptide added before preincubation” value in assay [2] and in assay [3] was “did not inhibit membrane fusion regardless of preincubation” in each case. The “inhibition of membrane fusion, peptide added after preincubation” value in assay [3] and in assay [4] was “did not inhibit membrane fusion regardless of preincubation” throughout.
“EHFKTTSQKVARKFWWK [Vp8C, 17-mer peptide, C-terminal region of VAMP8 SNARE motif]”: the “inhibition of mast cell degranulation with versus without A23187 pretreatment” value in the assay with RBL-2H3 mast cells [1] was “did not inhibit degranulation regardless of whether the pretreatment with A23187 was performed”. Besides, the “inhibition of membrane fusion, peptide added before preincubation” value in assay [2] and in assay [3] was “did not inhibit membrane fusion regardless of preincubation” each time. Also, the “inhibition of membrane fusion, peptide added after preincubation” value in assay [3] and in assay [4] was “did not inhibit membrane fusion regardless of preincubation” throughout.
On to “KIKHVQNQVDEVIDVMQ [Vp4N, 17-mer peptide, N-terminal region of VAMP4 SNARE motif]”, for which, in the assay with RBL-2H3 mast cells [1], the “reduction of β-hexosaminidase release” value is on record as 0–20%. Also, the “inhibition of histamine release” value in the assay on RBL-2H3 mast cells [5] is on record as 0–20%.
On to “QSLDRVTETQAQVDELK [Vp7N, 17-mer peptide, N-terminal region of VAMP7 SNARE motif]”, for which, in the assay with RBL-2H3 mast cells [1], the “reduction of β-hexosaminidase release” value was 0–20%. Also, the “inhibition of histamine release” value with RBL-2H3 mast cells [5] is given as 0–20%.
On to “RGENLDHLRNKTEDLEA [Vp8M, 17-mer peptide, middle region of VAMP8 SNARE motif]”, for which the “inhibition of membrane fusion (lipid mixing)” value in assay [2] (inhibitor applied to T-vesicles, T:V 9:1, 37°C, NBD dequenching, Vp2S/Vp8S at 10 µM, three independent experiments (Figure 3B-D)) is reported as “specific to the SN23-Syn4-Vp8 complex”.
